Experiments:
[1] = design: method as in PMID 23077723, PMID 25264825; details: cited from earlier work
OPCs from P0 mice = test: Proliferation assay (BrdU incorporation); format: cell-based, mouse; details: murine P0 OPCs, 1 μM, 72 h
Experimental: We isolated OPCs, as previously described. Briefly, a stock papain solution was prepared containing ([…]; Worthington Biochemical), L-cysteine (0.2 mg/ml; Sigma), and EDTA (0.2 mg/ml; Sigma) in Hank’s Balanced Salt Solution (HBSS; Invitrogen) without Ca^2+ and Mg[2]. Then, the cerebral cortices of P0 CD1 mice were dissected out and placed for 5 minutes at 37 °C in a medium containing the stock papain solution in HBSS with Ca^2+ and Mg^2+ (1:10; Invitrogen) in order to easily remove the meninges. […] The resulting enriched oligodendrocyte progenitor cell suspension was counted and seeded.
OPCs were placed on coverslips coated with poly-L-lysine (Sigma) and laminin (Sigma; 2 × 10^4 cells/well) and they were incubated with the inhibitors (VP3.15 or TDZD8; 1 μM) in the serum free medium described above. After 42 h in culture, BrdU (50 μM; Sigma) was added for 6 h and after a total of 72 h in culture, the cells were fixed and BrdU incorporation was detected by immunocytochemistry (1:20; G3G4, HybridomaBank) combined with the detection of the oligodendroglial marker Olig2 (1:250; Millipore; Cat#AB9610). […]

[2] = system: OPCs isolated from P0 mice; test: Differentiation assay, murine OPCs; format: cell-based, mouse
Experimental: We isolated OPCs, as previously described. Briefly, a stock papain solution was prepared containing ([…]; Worthington Biochemical), L-cysteine (0.2 mg/ml; Sigma), and EDTA (0.2 mg/ml; Sigma) in Hank’s Balanced Salt Solution (HBSS; Invitrogen) without Ca^2+ and Mg[2]. Then, the cerebral cortices of P0 CD1 mice were dissected out and placed for 5 minutes at 37 °C in a medium containing the stock papain solution in HBSS with Ca^2+ and Mg^2+ (1:10; Invitrogen) in order to easily remove the meninges. Once meninges and choroid plexus were removed, the tissue was enzymatically dissociated for 5 minutes at 37 °C again by using the papain solution (1:10 in HBSS without Ca^2+ and Mg^2+) and the digested tissue was then filtered through a 100 μm nylon mesh strainer (BD Biosciences) and seeded on poly-L-ornithine-coated (Sigma) 75 cm^2 flasks in DMEM medium (Invitrogen) containing 10% foetal bovine serum (FBS; BioWhittaker) and 100 U/mL penicillin, 0.1 mg/mL streptomycin and 0.25 μg/ml Amphotericin B antibiotic antimycotic solution (Sigma). Cultures were maintained at 37 °C and 5% CO2, and the medium was changed every 3 days. When the cultures reached confluence, they were shaken overnight at 250 rpm and at 37 °C in order to detach the OPCs located on the top of the confluent astrocyte monolayer and the medium was then filtered through a 40μm nylon mesh strainer (BDBiosciences) and centrifuged at 900 rpm. Cells were seeded twice (45 minutes each) in bacterial grade Petri dishes (Sterilin) to remove microglial cells. The resulting enriched oligodendrocyte progenitor cell suspension was counted and seeded.
(§1) Purified OPCs were placed on coverslips coated with poly-L-lysine and laminin in 24-well tissue culture dishes at a density of 2 × 10^4 cells/well. To promote differentiation, the cells were maintained in the differentiation medium (described above) and PDE7-GSK3 or GSK3 inhibitors (VP3.15 or TDZD8; 1 μM) were added to the culture medium. Different controls were used for the dual or single inhibitors due to the active substance being dissolved in differing amounts of DMSO. After 5, 7 and 10 DIV the cells were fixed with 4% PFA for further immunocytochemical analysis. Anti-CNPase antibodies (1:200;Covance; Cat#SMI-91R), anti-MBP antibodies (1:200; Serotec; Cat#MCA4095) for detecting oligodendrocytes and anti-Olig2 antibodies (1:250; Millipore; Cat#AB9610) as a marker for all oligodendroglial stages were used. Ten random fluorescence digital images were taken in each coverslip with a DFC480 FX digital camera (Leica) coupled to a Leica DM5000 B microscope for quantification. Data were expressed as a mean ratio of differentiated oligodendrocytes (CNPase^+-Olig2^+ double positive cells) with respect to total Olig2^+ cells ± SEM or percentage of CNPase^+ cells respect to control ± SEM, in at least three independent experiments, except with human samples (two independent experiments).

adult human OPCs = test: Differentiation assay, adult human OPCs; format: cell-based
Experimental: Human brain samples were obtained from adult patients of temporal lobe epilepsy resistant to pharmacological treatment or traumatic brain injury; they underwent surgical treatment by the Neurosurgery Service at the Hospital Universitario de La Princesa (Madrid, Spain) and Hospital 12 de Octubre (Madrid, Spain). All tissue samples were obtained under protocols approved by the Research Ethics Committee of Toledo (Spain) review boards. All were conducted in accordance with the Helsinki Declaration and were approved by the Research Ethics Committee of Toledo (Spain). All patients provided informed consent prepared under the guidelines of the Research Ethics Committee at their respective hospital in Madrid (Spain).
For cells obtained from human biopsies, the same protocol was used except that papain solution was used 1:2.5 in HBSS for 10 minutes for meningeal disintegration and 1:10 in HBSS for 15 minutes for the tissue digestion, 25 cm[2] flasks were used, the medium was supplemented with 10 ng/ml of human PDGF-AA (Millipore) for 2 weeks and then incubated for 2 more weeks without growth factors before shaking and the shaking was carried out at 230 rpm instead of 250 rpm.
as §1

[3] = murine P0 OPCs, 1 μM, 5, 7 and 10 DIV

c1ccc(-c2n/c(=N/CCN3CCOCC3)sn2-c2ccccc2)cc1 [VP3.15]
emetic side effects [1]: without emetic side effects
OPC proliferation (BrdU+-Olig2+ cells) (OPCs from P0 mice): no changes
number of mature oligodendrocytes (CNPase+-Olig2+ cells) vs control [2, 3]: significant increase
number of mature oligodendrocytes (MBP+-Olig2+ cells) vs control [2, 3]: significant increase
number of primary cytoplasmic processes ([2]; murine mature oligodendrocytes, control 4.9 ± 0.35, p = 0.64): 4.7 ± 0.31
number of cytoplasmic subprocesses ([2]; murine mature oligodendrocytes, control 8.588 ± 0.875, p = 0.62): 8.111 ± 0.970
number of CNPase+-Olig2+ cells vs control (differentiation) (adult human OPCs; adult human OPCs, 1 μM, 5 DIV): significantly increased
number of primary cytoplasmic processes (adult human OPCs; adult human oligodendrocytes, control 2.9 ± 0.21, p = 0.72): 2.75 ± 0.20
number of cytoplasmic subprocesses (adult human OPCs; adult human oligodendrocytes, control 4.3 ± 0.2, p = 0.83): 4.8 ± 0.43

Source: paper PMC5335257, “Promoting in vivo remyelination with small molecules: a neuroreparative pharmacological treatment for Multiple Sclerosis” (Scientific Reports, 2017)
